# Laboratory results as given in PubChem BioAssay AID1996.
# Settings: buffer; pH 7.4; 200.0 µM
row,solubility kinetic [µg/mL],SMILES
1,2.7,COc1ccc2[nH]c(C(=O)NCc3ccccc3)c(C)c2c1.Cl
2,> 47.9,O=S(=O)(c1ccc(F)c(F)c1)N1CCC2(CC1)OCCO2
3,> 51.1,COc1ccc(S(=O)(=O)N2CCOCC2)cc1NC(=O)C1CC1
4,0.3,Clc1nc(NCc2ccco2)nc(N2CCCCC2)n1
5,> 39.5,CCc1ccc(NC(=S)N2CCN(C)CC2)cc1
6,13.9,CSc1nc2sc3c(c2c(=O)[nH]1)CC(C)(C)OC3
7,37.7,CN(C)C(=O)c1cc(C(=O)Cc2ccccc2)c[nH]1
8,46.2,CCCC1(C(=O)OCC)NC(c2ccco2)C2C(=O)N(C)C(=O)C21 (centres undefined)
9,2.6,O=C(c1ccccc1)c1ccccc1NC(=O)C1CCCN1Cc1ccccc1 (centres undefined)
10,> 43.1,Br.CCCCCCCCn1ccc(=N)cc1
11,> 48.8,CCc1nc(NC(=O)Cc2csc(C)n2)sc1C(=O)OC
12,25.5,c1ccc(SSc2ccccn2)nc1
13,> 26.3,CN(C)/C=C/C(=O)c1ccccc1
14,> 31.1,O=C(O)c1cc(Cl)nc2ccccc12
15,2,COc1ccc(CCNC(=O)CSc2nc3scc(-c4ccccc4)c3c(=O)[nH]2)cc1
16,48.1,CN1CCN(C(=O)CSc2nc3c(c(=O)n(C)c(=O)n3C)n2C)CC1
17,> 35.6,O=C(COC(=O)c1ccccc1F)NC1CC1
18,50.9,COc1ccc(CNC2CC(C)N(C)CC2C)cc1OC.Cl (centres undefined)
19,> 42.8,CN(Cc1cccs1)C(=O)COC(=O)CNC(N)=O
20,> 38.1,Cc1ccc(C(C)NC(=O)c2ccncc2)cc1C (centres undefined)
21,> 62.2,COc1cccc(C(=O)NCC(=O)OC(C)C(=O)NC23CC4CC(CC(C4)C2)C3)c1 (centres undefined)
22,37,COC(=O)Cc1ccc2oc(-c3cccnc3)nc2c1

row,solubility kinetic [µg/mL],SMILES
1,3.9,CCOC(=O)CNC(=O)C12CC3CC(C1)CC(c1ccc(C)cc1)(C3)C2
2,> 46.8,CCCOc1ccc(-c2c(=O)n(O)c3ccccc3[n+]2[O-])cc1
3,2.4,Cc1ccc2nc(NC(=O)C3CC3C)sc2c1 (centres undefined)
4,> 32.7,c1ccc2c(c1)CC(CN1CCNCC1)O2 (centres undefined)
5,< 0.7,COc1ccc2oc(=O)c(C(=O)Nc3cccc(C(C)=O)c3)cc2c1
6,30.3,COc1cc2c(cc1OC)CN(C(=O)CCOc1ccccc1)CC2
7,> 23.7,CCCCNC1=NCCS1
8,41,COc1ccc(/C=N/S(=O)(=O)c2ccc(C)cc2)cc1
9,< 0.2,O=c1[nH]cnc2c1c(-c1ccccc1)cn2-c1ccccc1
10,34.2,CC1CCc2c(sc(NC(=O)COC(=O)C3CCCO3)c2C#N)C1 (centres undefined)
11,0.6,O=C(CCCOc1ccc(Cl)cc1Cl)Nc1ccccn1
12,> 47,CC(C)N(Cc1ccccc1)C(=O)COC(=O)c1cnccn1
13,> 44.4,O=C(COC(=O)c1ccc([N+](=O)[O-])o1)NC1CCCCC1
14,5,COc1ccc(/C=C(\C#N)C(=O)c2cccn2C)cc1
15,2.1,COc1ccccc1NC(=O)c1cc2c(cc1Cl)N1CCCCCC1=NS2(=O)=O
16,4,CCOc1ccc2[nH]c3c(N4CCC5(CC4)OCCO5)ncnc3c2c1
17,> 42.4,CCN(CC)C(=O)CN1C(=O)c2cccc3cccc1c23
18,19,COc1ccccc1NC(=S)NC(NC(C)=O)C(Cl)(Cl)Cl (centres undefined)
19,> 49,COC(=O)[C@H](Cc1ccccc1)NC(=O)NCc1ccc(C)cc1
20,6.2,N/C(=N\OC(=O)COc1ccc2ccccc2c1)c1ccncc1
21,> 43.4,O=C(COc1cc(Cl)ccc1Cl)N1CCNC1=O
22,> 41.6,CC1CCCN(C(=O)COc2ccc3c(c2)OCO3)C1 (centres undefined)

row,solubility kinetic [µg/mL],SMILES
1,2.8,CC(C)NC(=O)c1ccc(COc2cc(Cl)ccc2Cl)o1
2,48.7,COCCNC(=O)C(=O)Nc1cc2c3c(c1)C(C)C(=O)N3CCC2 (centres undefined)
3,42.7,Cc1cc(C)cc(C(=O)N2CCN(c3ccccn3)CC2)c1
4,> 41.7,COc1ccc(S(=O)(=O)NCc2cccnc2)cc1
5,> 49.3,COc1ccc(NC(=O)CN(C)C(=O)c2ccccc2OC)cc1
6,41.4,OC(CN1CCN(c2ccccc2Cl)CC1)c1ccccc1 (centres undefined)
7,4.6,Cc1cccc(N2C(=O)CN(Cc3cccs3)C2=S)c1
8,> 61.3,COc1ccc(S(=O)(=O)NCC(=O)NCCc2ccc(OC)c(OC)c2)cc1
9,4.5,Cn1c(N)c(C(=O)COC(=O)c2ccc(F)cc2Cl)c(=O)n(C)c1=O
10,> 48.9,CC(=O)Nc1c2c(nn1-c1cccc(Cl)c1)CS(=O)(=O)C2
11,> 52.5,COc1ccccc1CCNC(=O)c1c(C)nn(CC(C)C)c1Cl
12,8.2,O=c1c(/C=N/O)coc2ccc(Cl)cc12
13,< 0.6,S=C(c1ccc(OCc2ccccc2)cc1)N1CCCC1
14,48.2,COCCNC(=S)N(C)C1(c2ccccc2Cl)CCCCC1=O (centres undefined)
15,> 42.4,Cc1cccc(C)c1NC(=O)C1CCCCN1C.Cl (centres undefined)
16,10.5,Nc1cc(C(=O)OCC(=O)NCCCc2ccccc2)ccc1Cl
17,> 43.9,COc1ccc(/C=N/OCC(=O)N2CCCC2)c(OC)c1
18,5,NC(=O)c1ccc(NCCc2ccccc2)c([N+](=O)[O-])c1
19,> 56.1,O=C(COc1ccc([N+](=O)[O-])cc1Cl)NCCN1C(=O)CSC1=O
20,2,Cc1cc(=O)oc2cc(Oc3ncccc3[N+](=O)[O-])ccc12
21,5,O/N=C(/c1ccc(F)cc1)C1CC1c1c(F)cccc1Cl (centres undefined)

# The remaining lines, values behind:
row,SMILES,solubility kinetic [µg/mL]
1,Br.COc1ccc(C2=CSC3=NCCN23)cc1,> 47
2,O=C(CCCC(=O)c1ccccc1)Nc1ccc(O)cc1,> 42.5
3,CC(=O)NC1(NC(C)=O)CCN(C)CC1,> 32
4,O=C(c1ccc2ccccc2n1)N(CCO)Cc1ccccc1,41.4
5,Cc1cccc(NC(=O)CSc2cccc[n+]2[O-])c1C,39.7
6,Cc1ccc(-c2nc(CN(C)C3CCOC3)c(C)o2)s1 (centres undefined),> 43.9
7,CC(C)c1nc2oc3c(=O)[nH]cnc3c2c2c1COC(C)(C)C2,> 47
8,CC1CCCC(NC(=O)C2COc3ccccc3O2)C1C (centres undefined),17.2
9,CSc1ccccc1NC(=O)COC(=O)c1ccccc1O,2
10,O=S(=O)(Nc1cccnc1)c1ccc(F)cc1,> 37.8
11,COc1ccc(CN=Cc2c(C(=O)O)[nH]c3ccccc23)cc1,> 46.3
12,CCn1c(SCC(=O)Nc2nccc(C)n2)nc2ccccc21,> 49.1
13,C/C(=N\O)C(=O)Nc1ccccc1,> 26.7
14,CC(=O)Nc1cccc(NC(=O)C2CC(=O)N(CCc3ccc(F)cc3)C2)c1 (centres undefined),38.4
15,CCN/C=C(\C#N)S(=O)(=O)c1ccc(Br)cc1,34.8
16,Cc1cccc(NC(=O)N2CCCCCC2)c1C,> 37
17,Cc1nonc1NC(=O)CSc1nc2ccc(Cl)cc2[nH]1,36.4
18,O=C(O)C1CCCN1S(=O)(=O)c1ccc(Cl)cc1 (centres undefined),> 43.5
19,CNC(=S)N1CCN(CCNC2=CC(=O)CC(C)(C)C2)CC1,44.4
20,COc1cc(C(=O)Nc2ccc(C(=O)c3cccs3)cc2)cc(OC)c1OC,8.2
21,COCc1cc(C)[nH]c(=O)c1C(=O)NC12CC3CC(CC(C3)C1)C2,9.6
22,Cc1ccc(F)c(NC(=O)CCOc2ccccc2C)c1,25.5
23,Cc1ccc(S(=O)(=O)NC(=O)NC(C)c2ccc(F)cc2)cc1 (centres undefined),> 50.5
24,Cn1c(=O)n(C)c2cc([N+](=O)[O-])c(N3CCNCC3)cc21,> 43.7
25,CN(Cc1cccs1)C(=O)c1ccc(Cl)c(S(=O)(=O)N2CCCCCC2)c1,14.1
26,Cn1c(=O)n(CCc2ccccc2)c2ccccc21,29.2
27,CCc1ccc(C(=O)Nc2cc(C)on2)o1,> 33

row,SMILES,solubility kinetic [µg/mL]
1,CS(=O)(=O)N1CCCC(C(=O)Nc2ccccc2)C1 (centres undefined),42.2
2,Cc1cc(C(=O)Nc2ccc(F)cc2C)cs1,24.4
3,O=C(COC(=O)/C=C/c1ccccc1)NC1CC1,> 36.8
4,CC(C)c1cc(=O)[nH]c(N2CCN(Cc3ccc4c(c3)OCO4)CC2)n1,49.9
5,O=C(O)CCN1C(=O)c2ccc(NC(=O)CCc3ccccc3)cc2C1=O,> 55
6,Cc1cc(C)c(C)c(S(=O)(=O)N2CCC(C(=O)OCC(=O)NC3CCS(=O)(=O)C3)CC2)c1C (centres undefined),> 75.1
7,Cc1cc(=O)oc2cc(OC(C)C(=O)NC3CCCC3)ccc12 (centres undefined),44.6
8,Cc1ccc(NC(=O)CN2C(=O)S/C(=C\c3ccccn3)C2=O)cc1C,< 0.3
9,O=c1c(-c2ccco2)[n+]([O-])c2ccccc2n1OCc1c(F)cccc1F,3
10,COc1ccccc1NC(=O)Cc1ccsc1,> 37.1
11,S=C(NCC1CCCO1)N1CCc2ccccc2C1 (centres undefined),> 41.5
12,CCOc1ccc2nc(NS(=O)(=O)c3cccs3)sc2c1,9.9
13,OCCC1CN(CC2CC2)CCN1Cc1ccc(F)c(F)c1 (centres undefined),> 46.6
14,COc1cc(C(=O)Nc2cccc(C(C)=O)c2)cc(OC)c1OC,> 49.4
15,COC(=O)c1sccc1NC(=O)Nc1ccc(OC)c(OC)c1,> 50.5
16,Cc1cccc(C(=O)NCC(=O)OCC(=O)N2CCCCC2)c1,46
17,COc1ccc(C(=O)CSc2nc3ncccc3[nH]2)cc1OC,13.4
18,Cc1ccc(NC(=O)C(c2ccccc2)c2ccccc2)c(O)c1,2.1
19,Cc1c(C(=O)C(=O)N2CCN(C)CC2)c2ccccc2n1C,> 44.9
20,Cc1ccc(S(=O)(=O)NC(C)C(=O)NC2CC2)cc1 (centres undefined),41
21,Cc1ccc(CCC(=O)Nc2ccc(C#N)cc2)o1,37
22,CCOC(=O)C1CCN(S(=O)(=O)c2cn(C)c(C)n2)CC1,> 47.3
23,CCOc1ccc(/C=C2\SC(=S)N(C(C(=O)O)c3ccccc3)C2=O)cc1OC (centres undefined),> 64.4
24,CN1CC(C(=O)c2ccc(Cl)cc2)C(c2ccccc2F)C1 (centres undefined),> 47.7
25,CN(C)C(=O)CN1CCN(Cc2nc(CC3CC3)no2)CC1,> 46.1
26,CSc1sc(C(=O)N2CCc3ccccc32)cc1S(=O)(=O)C(C)C,< 0.8
27,CN(C)c1ccc(/C=C2\SC(N3CCCCC3)=NC2=O)cc1,4.7
